{"source": "patent US6204262A", "about": "“1,3-Benzodiazepin-2-ones and 1,3-Benzoxazepin-2-ones useful as HIV reverse transcriptase inhibitors” (DuPont Pharmaceuticals Company, priority 1999, dated 2001)", "system": "HIV-1 (RF)", "assay": "Microplate based compound evaluation in HIV-1 infected MT-2 cells (HIV RNA assay)", "assay_type": "cell-based", "conditions": "Human immunodeficiency virus 1, MT2, 72 h; HIV-1 (RF) infected MT-2 cells, 3 days at 37° C.; virus inoculum standardized on ddC; read-out: IC90 value (concentration of compound required to reduce the HIV RNA level by 90%)", "method": "Plasmid pDAB 72 containing both gag and pol sequences of BH10 (bp 113-1816) cloned into PTZ 19R was prepared according to Erickson-Viitanen et al. AIDS Research and Human Retroviruses 1989, 5, 577. The plasmid was linearized with Bam HI prior to the generation of in vitro RNA transcripts using the Riboprobe Gemini system II kit (Promega) with T7 RNA polymerase. Synthesized RNA was purified by treatment with RNase free DNAse (Promega), phenol-chloroform extraction, and ethanol precipitation. RNA transcripts were dissolved in water, and stored at -70° C. The concentration of RNA was determined from the A260.\nBiotinylated capture probes were purified by HPLC after synthesis on an Applied Biosystems (Foster City, Calif.) DNA synthesizer by addition of biotin to the 5' terminal end of the oligonucleotide, using the biotin-phosphoramidite reagent of Cocuzza, Tet. Lett. 1989, 30, 6287. […]\nMT-2 and MT-4 cells were maintained in RPMI 1640 supplemented with 5% fetal calf serum (FCS) for MT-2 cells or 10% FCS for MT-4 cells, 2 mM L-glutamine and 50 μg/mL gentamycin, all from Gibco. […] Infectious titers of HIV-1(RF) stocks were 1-3×10^7 PFU (plaque forming units)/mL as measured by plaque assay on MT-2 cells (see below). […]", "data": [{"smiles": "Nc1ccn([C@H]2CC[C@@H](CO)O2)c(=O)n1", "note": "[ddC, 2',3'-dideoxycytidine]", "values": [{"measurement": "IC90", "value": 0.2, "unit": "µg/mL"}]}]}
